Reference: patent US12534501B2, “Targeting deregulated Wnt signaling in cancer using stabilized alpha-helices of BCL-9” (Dana-Farber Cancer Institute, Inc., priority 2011, dated 2026)
Numbered stars: 1 amine (or outer) side, 2 acyl side, 3 side chain; on linkers, the order of the positions; unused ones are H or OH. Bridge positions count the residues as written; N and C are the ends. Square brackets hold non-standard residues; d marks the D form. Peptide text beside a SMILES is read from it. ξ: configuration not given here. ξαMeNle(6-ylidene) = CC(CCCC=[*:3])(N[*:1])C(=O)[*:2]; Nle = CCCC[C@H](N)C(=O)O

Experiments:
Assay type in all cases: cell-based
[1] = system: INA-6 multiple myeloma cells; assay: Cell proliferation, thymidine incorporation; details: 5 μM, 24 h, vs vehicle and SAH-BCL9B(R359E)
Method: (§1) Cell proliferation assays were performed as described (Sukhdeo, K. et al. Proc Natl Acad Sci USA 104, 7516-21 (2007)). Cell viability was measured using the CellTiter-Glo assay (Promega) according to the manufacturer's instructions. Apoptosis was evaluated by activated caspase-3 and PARP western blotting. See results in FIG. 3A-FIG. 3F, FIG. 13, and FIG. 20.

[2] = system: Wnt target genes in MM1S cells; assay: qRT-PCR of Wnt/β-catenin target genes; details: MM1S (FIG. 19A), 10 μM
Method: To measure the effects of vehicle, SAH-BCL9B, and SAH-BCL9MUT on the expression of Wnt/β-catenin target genes, including VEGF, in Colo320 (FIG. 18) and MM1S (FIG. 19) cell lines, quantitative PCR (qRT-PCR) analysis was performed. RNA was extracted with TRIzol Reagent (Invitrogen) according to the manufacturer's protocol. Total RNA (2 μg) was reverse transcribed (SuperScript VILO cDNA synthesis kit, Invitrogen) and qPCR was performed using an Applied Biosynthesis 7500 Real-time PCR system. PCR primers were designed as below: […]
Analysis of target genes was conducted in quadruplicate using POWER SYBR Green Master Mix (Applied Biosystems) as previously described (M. Mani et al., Cancer Res 69, 7577 (2009)). Transcripts levels were normalized to β-actin expression. These experiments were repeated three times.

[3] = system: VEGF secretion by Colo320 cells; assay: VEGF ELISA; details: 5 μM, 24 h
Method: (§2) VEGF ELISA was performed as previously described (Mani, M. et al. Cancer Res 69, 7577-86 (2009)). Briefly, cells (1×10^6) were treated with vehicle and SAH-BCL9 peptides (5 μM) for 24 h. VEGF levels in the supernatant were then measured according to the manufacturer's ELISA protocol (DuoSet, R&D Systems).

[4] = system: VEGF secretion by MM1S cells; assay: VEGF ELISA; details: 5 μM, 24 h
Method: as §2

[5] = molecular target: T1, β-catenin-BCL9/B9L complexes (Homo sapiens, UniProt P35222); assay: Anti-BCL9 and B9L co-immunoprecipitation (disruption of native complexes); details: cellular treatment
T1 construct: SAH-BCL9B disrupts native β-catenin-BCL9/B9L complexes; endogenous in cells; Colo320 or MM1S by context
T1 sequence (P35222 2-781): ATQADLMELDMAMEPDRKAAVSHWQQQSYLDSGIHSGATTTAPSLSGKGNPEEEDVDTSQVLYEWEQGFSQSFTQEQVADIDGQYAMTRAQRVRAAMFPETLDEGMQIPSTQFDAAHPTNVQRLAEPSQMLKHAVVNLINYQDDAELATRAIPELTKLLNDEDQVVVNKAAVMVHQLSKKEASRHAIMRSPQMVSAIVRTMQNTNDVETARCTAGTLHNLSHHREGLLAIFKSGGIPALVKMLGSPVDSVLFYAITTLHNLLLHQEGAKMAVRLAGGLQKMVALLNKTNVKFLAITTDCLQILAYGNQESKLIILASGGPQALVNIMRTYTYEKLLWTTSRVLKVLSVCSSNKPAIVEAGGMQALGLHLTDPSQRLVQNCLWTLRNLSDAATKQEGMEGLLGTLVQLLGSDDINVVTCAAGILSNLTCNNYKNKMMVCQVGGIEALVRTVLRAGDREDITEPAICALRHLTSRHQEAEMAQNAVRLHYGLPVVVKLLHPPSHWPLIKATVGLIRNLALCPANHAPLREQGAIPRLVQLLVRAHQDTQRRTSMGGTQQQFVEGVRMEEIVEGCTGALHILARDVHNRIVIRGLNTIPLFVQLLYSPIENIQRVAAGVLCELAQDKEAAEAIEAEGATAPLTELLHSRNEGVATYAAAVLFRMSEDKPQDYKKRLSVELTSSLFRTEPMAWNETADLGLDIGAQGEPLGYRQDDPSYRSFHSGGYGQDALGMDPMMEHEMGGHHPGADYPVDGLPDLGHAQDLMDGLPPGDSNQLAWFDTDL
Description: Western blotting, performed as described (Sukhdeo, K. et al. Proc Natl Acad Sci USA 104, 7516-21 (2007)), employed the following primary antibodies: BCL9 (6109) (Mani, M. et al. Cancer Res 69, 7577-86 (2009)), BCL9 (ab37305, Abcam), B9L (AF4967, R&D Systems), β-catenin (CAT5-H10, Zymed), FITC (ab19224, Abcam), Actin-HRP (C-11, Santa Cruz), Caspase3 (#9662, Cell Signaling), IκBα (#9242, Cell signaling), PARP (#9542, Cell Signaling), E-cadherin (#3195, Cell Signaling), and Lamin B (sc-6217, Santa Cruz). Horseradish peroxidase conjugated secondary antibodies were purchased from Santa Cruz and SouthernBiotech. Co-immunoprecipitation was performed as described (Walensky, L. D. et al. Science 305, 1466-70 (2004)). Briefly, cells were lysed in 50 mM Tris, 150 mM NaCl, and 1% CHAPS buffer containing protease and phosphatase inhibitors. Lysates were precleared with Protein A/G PLUS-agarose beads (Santa Cruz Biotechnologies) for 3 hours followed by overnight incubation at 4° C. with the respective antibodies. Agarose A/G beads were then added for 4 h, pelleted, and washed as described (Walensky, L. D. et al. Science 305, 1466-70 (2004)). See results in FIG. 1D, FIG. 1H, FIG. 2A, FIG. 8.

[6] = system: β-catenin/BCL9-driven transcription in HCT116 cells; assay: TOP-FLASH dual luciferase assay with pcDNA-BCL9 transfection; details: HCT116, TOP-FLASH and pcDNA-BCL9, peptides 5 μM, 24 h
Colo320 cells = assay: Cell viability, CellTiter-Glo; details: 72 h, 5 μM
Method: as §1

MM1S cells = assay: Cell viability, CellTiter-Glo; details: 72 h, 5 μM
Method: as §1

Compound | growth by thymidine incorporation [1] | mRNA levels of VEGF, c-MYC, LGR5, LEF1, and AXIN2 [2] | VEGF secretion [3] | VEGF secretion [4] | disruption of the association of β-catenin with BCL9 and B9L [5] | suppression of reporter activity on increasing BCL9 expression [6] | viability (Colo320 cells) | viability (MM1S cells)
CCCC[C@H](NC(=O)[C@H](CCCNC(=N)N)NC(=O)[C@H](CCC(N)=O)NC(=O)[C@@H](NC(=O)C1(C)CCCC=CCCCC(C)(NC(=O)[C@H](CC(C)C)NC(=O)[C@H](CO)NC(=O)[C@H](CCCNC(=N)N)NC(=O)[C@H](CCC(=O)O)NC(=O)[C@H](CCCNC(=N)N)NC(=O)[C@H](Cc2c[nH]cn2)NC(=O)[C@H](CCC(=O)O)NC(=O)[C@H](CC(C)C)NC(=O)[C@H](CCC(N)=O)NC(=O)[C@H](CCC(=O)O)NC(=O)[C@H](CCC(N)=O)NC(=O)[C@H](CO)NC(=O)[C@H](CC(C)C)NC(C)=O)C(=O)N[C@@H]([C@@H](C)O)C(=O)N[C@@H](CC(C)C)C(=O)N[C@@H](CCCNC(=N)N)C(=O)N1)[C@@H](C)CC)C(=O)N[C@@H](CC(C)C)C(=O)N[C@@H](Cc1ccccc1)C(N)=O (stereo partly drawn) [SAH-BCL9B] (Ac-LSQEQLEHRERSL[ξαMeNle(6-ylidene)]TLR[ξαMeNle(6-ylidene)]IQR[Nle]LF-NH2; staple 14-18) | significantly reduced growth | dose-responsively reduced | decreased VEGF secretion | decreased VEGF secretion | dose-responsively disrupted | dose-responsively reversed | no effect | no effect
SAH-BCL9B(R359E): SEQ ID NO: 7: LSQEQLEHEERSLXTLRXIQRBLF; reverse polarity point mutant, negative control of SAH-BCL9B | – | – | – | – | no effect | – | – | –
